Source: US12414565B2, “Pyridazine (THIO)amides as fungicidal compounds” (Bayer Aktiengesellschaft, priority 2018, dated 2025)

Legend:
[1] = system: Pyrenophora teres; experiment: In vivo preventive test on Pyrenophora teres (net blotch on barley); details: 240 h, 500 ppm of active ingredient, preventive spray on barley, evaluated 10 days after inoculation, 100% = no disease, read-out: efficacy
Experimental: (§1) The active ingredients were made soluble and homogenized in a mixture of Dimethyl sulfoxide/Acetone/Tween® 80 and then diluted in water to the desired concentration.
The young plants of barley were treated by spraying the active ingredient prepared as described above. Control plants were treated only with an aqueous solution of Acetone/Dimethyl sulfoxide/Tween® 80.
After 24 hours, the plants were contaminated by spraying the leaves with an aqueous suspension of Pyrenophora teres spores. The contaminated barley plants were incubated for 48 hours at 20° C. and at 100% relative humidity and then for 8 days at 20° C. and at 70-80% relative humidity.
The test was evaluated 10 days after the inoculation. 0% means an efficacy which corresponds to that of the control plants while an efficacy of 100% means that no disease was observed.

[2] = system: Botrytis cinerea; experiment: In vivo preventive test on Botrytis cinerea (grey mould); details: 500 ppm of active ingredient, preventive spray on gherkin or cabbage, evaluated 4 to 5 days after inoculation, 100% = no disease, read-out: efficacy
Experimental: as §1
The young plants of gherkin or cabbage were treated by spraying the active ingredient prepared as described above. Control plants were treated only with an aqueous solution of Acetone/Dimethyl sulfoxide/Tween® 80.
After 24 hours, the plants were contaminated by spraying the leaves with an aqueous suspension of Botrytis cinerea spores. The contaminated gherkin plants were incubated for 4 to 5 days at 17° C. and at 90% relative humidity. The contaminated cabbage plants were incubated for 4 to 5 days at 20° C. and at 100% relative humidity.
The test was evaluated 4 to 5 days after the inoculation. 0% means an efficacy which corresponds to that of the control plants while an efficacy of 100% means that no disease was observed.

[3] = system: Alternaria brassicae; experiment: In vivo preventive test on Alternaria brassicae (leaf spot on radish or cabbage); details: 144 h, 500 ppm of active ingredient, preventive spray on radish or cabbage, evaluated 6 days after inoculation, 100% = no disease, read-out: efficacy
Experimental: as §1
The young plants of radish or cabbage were treated by spraying the active ingredient prepared as described above. Control plants were treated only with an aqueous solution of Acetone/Dimethyl sulfoxide/Tween® 80.
After 24 hours, the plants were contaminated by spraying the leaves with an aqueous suspension of Alternaria brassicae spores. The contaminated radish or cabbage plants were incubated for 6 days at 20° C. and at 100% relative humidity.
The test was evaluated 6 days after the inoculation. 0% means an efficacy which corresponds to that of the control plants while an efficacy of 100% means that no disease was observed.

[4] = system: Alternaria alternata; experiment: Alternaria alternata in vitro cell test; type: cell-based; details: 120 h, 20 ppm of active ingredient, liquid culture, 5 days incubation, absorbance, read-out: efficacy (inhibition of fungal growth)
Experimental: (§2) [table] Fungicides were solubilized in DMSO and the solution used to prepare the required range of concentrations. The final concentration of DMSO used in the assay was <1%. A spore suspension of A. alternata was prepared and diluted to the desired spore density. Fungicides were evaluated for their ability to inhibit spore germination and mycelium growth in liquid culture assay. The compounds were added in the desired concentration to the culture medium with spores. After 5 days incubation, fungi-toxicity of compounds was determined by spectrometric measurement of mycelium growth. Inhibition of fungal growth was determined by comparing the absorbance values in wells containing the fungicides with the absorbance in control wells without fungicides.

[5] = system: Colletotrichum lindemuthianum; experiment: Colletotrichum lindemuthianum in vitro cell test; type: cell-based; details: 144 h, 20 ppm of active ingredient, liquid culture, 6 days incubation, absorbance, read-out: efficacy (inhibition of fungal growth)
Experimental: as §2, with “was ≤1%.” for “was <1%.”, “of C. lindemuthianum” for “of A. alternata”, “inhibit spores” for “inhibit spore”, “After 6” for “After 5”

[6] = system: Sphaerotheca fuliginea; experiment: In vivo preventive test on Sphaerotheca fuliginea (powdery mildew on cucurbits); details: Podosphaera fuliginea, 192 h; 500 ppm of active ingredient; preventive spray on gherkin; evaluated 8 days after inoculation; 100% = no disease; read-out: efficacy
Experimental: as §1
The young plants of gherkin were treated by spraying the active ingredient prepared as described above. Control plants were treated only with an aqueous solution of Acetone/Dimethyl sulfoxide/Tween® 80.
After 24 hours, the plants were contaminated by spraying the leaves with an aqueous suspension of Sphaerotheca fuliginea spores. The contaminated gherkin plants were incubated for 8 days at 20° C. and at 70-80% relative humidity.
The test was evaluated 8 days after the inoculation. 0% means an efficacy which corresponds to that of the control plants while an efficacy of 100% means that no disease was observed.

[7] = Measurement of Log P values by HPLC on reversed phase columns (EEC directive 79/831 Annex V.A8); type: physicochemical
Experimental: Measurement of Log P values as provided herein was performed according to EEC directive 79/831 Annex V.A8 by HPLC (High Performance Liquid Chromatography) on reversed phase columns with the following methods: • ^[a]
If more than one Log P value is available within the same method, all the values are given and separated by “+”.
Lambda-max-values were determined using UV-spectra from 200 nm to 400 nm and the peak values of the chromatographic signals

## CC(=O)c1cc(C(=O)NCC(F)c2ccc(Br)cc2Cl)c(Oc2cccc(C(F)(F)F)c2)nn1 (racemic) [I-605, 6-acetyl-N-[rac-2-(4-bromo-2-chloro-phenyl)-2-fluoro-ethyl]-3-[3-(trifluoromethyl)phenoxy]pyridazine-4-carboxamide]
[1]
  pest or weed control at 500 ppm: 70 to 79%
[2]
  pest or weed control at 500 ppm: 70 to 79%
[3]
  pest or weed control at 500 ppm: 90 to 100%
[4]
  inhibition at 20 ppm: 90 to 100%
[5]
  inhibition at 20 ppm: 90 to 100%
[6]
  pest or weed control at 500 ppm: 90 to 100%

## O=C(O)c1ccnnc1Oc1cccc(C(F)(F)F)c1 [1-129]
[7]; method [a]: LC-UV, acidic range, 0.1% formic acid in water / acetonitrile, Table 3, formula (1)
  LogP: 1.47^[a]

## Cc1ccc(C(F)(F)CNC(=O)c2cc(C)nnc2Cl)c(C)c1 [3-06]
[7]; method [a]: LC-UV, acidic range, 0.1% formic acid in water / acetonitrile, Table 7, formula (3)
  LogP: 3.20^[a]

## Cc1ccc(C(F)(F)CNC(=O)c2cc(Cl)nnc2Oc2cccc(C(F)(F)F)c2)c(C)c1 [I-014, 6-chloro-N-[2-(2,4-dimethylphenyl)-2,2-difluoro-ethyl]-3-[3-(trifluoromethyl)phenoxy]pyridazine-4-carboxamide]
[1]
  pest or weed control at 500 ppm: 70 to 79%
[2]
  pest or weed control at 500 ppm: 90 to 100%
[3]
  pest or weed control at 500 ppm: 90 to 100%
[4]
  inhibition at 20 ppm: 90 to 100%
[5]
  inhibition at 20 ppm: 90 to 100%
[6]
  pest or weed control at 500 ppm: 90 to 100%

## Cc1ccc(C(F)(F)CNC(=O)c2c(Oc3cccc(C(F)(F)F)c3)nnc(Cl)c2I)c(C)c1 [I-020, 6-chloro-N-[2-(2,4-dimethylphenyl)-2,2-difluoro-ethyl]-5-iodo-3-[3-(trifluoromethyl)phenoxy]pyridazine-4-carboxamide]
[1]
  pest or weed control at 500 ppm: 80 to 89%
[2]
  pest or weed control at 500 ppm: 90 to 100%
[3]
  pest or weed control at 500 ppm: 90 to 100%
[4]
  inhibition at 20 ppm: 90 to 100%
[5]
  inhibition at 20 ppm: 90 to 100%
[6]
  pest or weed control at 500 ppm: 90 to 100%

## Cc1ccc(CCNC(=S)c2cc(C)nnc2Oc2cccc(C(F)(F)F)c2)c(C)c1 [I-094, N-[2-(2,4-dimethylphenyl)ethyl]-6-methyl-3-[3-(trifluoromethyl)phenoxy]pyridazine-4-carbothioamide]
[1]
  pest or weed control at 500 ppm: 80 to 89%
[2]
  pest or weed control at 500 ppm: 90 to 100%
[3]
  pest or weed control at 500 ppm: 90 to 100%
[4]
  inhibition at 20 ppm: 80 to 89%
[5]
  inhibition at 20 ppm: 90 to 100%
[6]
  pest or weed control at 500 ppm: 90 to 100%

## Cc1cc(C2CC2)ccc1C(F)(F)CNC(=O)c1cc(Cl)nnc1Oc1cccc(C(F)(F)F)c1 [I-240, 6-chloro-N-[2-(4-cyclopropyl-2-methyl-phenyl)-2,2-difluoro-ethyl]-3-[3-(trifluoromethyl)phenoxy]pyridazine-4-carboxamide]
[1]
  pest or weed control at 500 ppm: 70 to 79%
[2]
  pest or weed control at 500 ppm: 90 to 100%
[3]
  pest or weed control at 500 ppm: 90 to 100%
[4]
  inhibition at 20 ppm: 90 to 100%
[5]
  inhibition at 20 ppm: 90 to 100%
[6]
  pest or weed control at 500 ppm: 90 to 100%

## CCc1c(Cl)nnc(Oc2cccc(C(F)(F)F)c2)c1C(=O)NCC(F)(F)c1ccc(Cl)cc1 [I-254, 6-chloro-N-[2-(4-chlorophenyl)-2,2-difluoro-ethyl]-5-ethyl-3-[3-(trifluoromethyl)phenoxy]pyridazine-4-carboxamide]
[2]
  pest or weed control at 500 ppm: 90 to 100%
[3]
  pest or weed control at 500 ppm: 90 to 100%
[4]
  inhibition at 20 ppm: 90 to 100%
[5]
  inhibition at 20 ppm: 90 to 100%
[6]
  pest or weed control at 500 ppm: 90 to 100%

## O=C(NCC(F)(F)c1ccc(Br)cc1Cl)c1cc(C2CC2)nnc1Oc1cccc(C(F)(F)F)c1 [I-312]
[7]; method [a]
  LogP: 4.79
[7]; method [b]
  LogP: 4.68

## COC(=O)N(CC(F)(F)c1ccc(C)cc1C)C(=O)c1cc(Cl)nnc1Oc1cccc(C(F)(F)F)c1 [I-335, methyl N-[6-chloro-3-[3-(trifluoromethyl)phenoxy]pyridazine-4-carbonyl]-N-[2-(2,4-dimethylphenyl)-2,2-difluoro-ethyl]carbamate]
[2]
  pest or weed control at 500 ppm: 90 to 100%
[3]
  pest or weed control at 500 ppm: 80 to 89%
[4]
  inhibition at 20 ppm: 70 to 79%
[5]
  inhibition at 20 ppm: 80 to 89%
[6]
  pest or weed control at 500 ppm: 80 to 89%

## Cc1ccc(C(F)(F)CNC(=O)c2c(Oc3cccc(C(F)(F)F)c3)nnc(Cl)c2NC2COC2)c(C)c1 [I-408, 6-chloro-N-[2-(2,4-dimethylphenyl)-2,2-difluoro-ethyl]-5-(oxetan-3-ylamino)-3-[3-(trifluoromethyl)phenoxy]pyridazine-4-carboxamide]
[1]
  pest or weed control at 500 ppm: 70 to 79%
[2]
  pest or weed control at 500 ppm: 90 to 100%
[3]
  pest or weed control at 500 ppm: 90 to 100%
[4]
  inhibition at 20 ppm: 90 to 100%
[5]
  inhibition at 20 ppm: 90 to 100%
[6]
  pest or weed control at 500 ppm: 90 to 100%

## Cc1ccc(C(F)(F)CNC(=O)c2cc(I)nnc2Oc2cccc(C(F)(F)F)c2)c(C)c1 [I-461, N-[2-(2,4-dimethylphenyl)-2,2-difluoro-ethyl]-6-iodo-3-[3-(trifluoromethyl)phenoxy]pyridazine-4-carboxamide]
[1]
  pest or weed control at 500 ppm: 80 to 89%
[2]
  pest or weed control at 500 ppm: 90 to 100%
[3]
  pest or weed control at 500 ppm: 90 to 100%
[4]
  inhibition at 20 ppm: 90 to 100%
[5]
  inhibition at 20 ppm: 90 to 100%
[6]
  pest or weed control at 500 ppm: 90 to 100%

## Cc1cc(C(=O)NCCc2ccc(C(F)F)cn2)c(Oc2cccc(C(F)(F)F)c2)nn1 [I-525]
[7]; LogP method [a]
  LogP: 2.57
[7]; LogP method [b]
  LogP: 2.71

## O=C(NCC(F)(F)c1ccc(Br)cc1Cl)c1cc(Cl)nnc1Oc1cccc(F)c1F [I-530, N-[2-(4-bromo-2-chloro-phenyl)-2,2-difluoro-ethyl]-6-chloro-3-(2,3-difluorophenoxy)pyridazine-4-carboxamide]
[1]
  pest or weed control at 500 ppm: 70 to 79%
[2]
  pest or weed control at 500 ppm: 90 to 100%
[3]
  pest or weed control at 500 ppm: 90 to 100%
[4]
  inhibition at 20 ppm: 90 to 100%
[5]
  inhibition at 20 ppm: 90 to 100%
[6]
  pest or weed control at 500 ppm: 90 to 100%

## Cc1ccc(C(F)(F)CNC(=O)c2cc(C)nnc2Oc2cccc(C3CCC3)c2)c(C)c1 [I-564, 3-(3-cyclobutylphenoxy)-N-[2-(2,4-dimethylphenyl)-2,2-difluoro-ethyl]-6-methyl-pyridazine-4-carboxamide]
[2]
  pest or weed control at 500 ppm: 90 to 100%
[3]
  pest or weed control at 500 ppm: 80 to 89%
[4]
  inhibition at 20 ppm: 90 to 100%
[5]
  inhibition at 20 ppm: 70 to 79%
[6]
  pest or weed control at 500 ppm: 80 to 89%

## CSc1cc(C(=O)NCC(F)(F)c2ccc(C)cc2C)c(Oc2cccc(C(F)(F)F)c2)nn1 [I-767, N-[2-(2,4-dimethylphenyl)-2,2-difluoro-ethyl]-6-methylsulfanyl-3-[3-(trifluoromethyl)phenoxy]pyridazine-4-carboxamide]
[1]
  pest or weed control at 500 ppm: 80 to 89%
[2]
  pest or weed control at 500 ppm: 90 to 100%
[3]
  pest or weed control at 500 ppm: 90 to 100%
[4]
  inhibition at 20 ppm: 90 to 100%
[5]
  inhibition at 20 ppm: 90 to 100%
[6]
  pest or weed control at 500 ppm: 90 to 100%

## Cc1ccc(C(F)(F)CNC(=O)c2c(Oc3cccc(C(F)(F)F)c3)nnc(Cl)c2NC2CC2C2CC2)c(C)c1 (centres unmarked) [I-812]
[7]; method [a]
  LogP: 4.87^[a]

## Cc1ccc(C(F)(F)CNC(=O)c2c(Oc3cccc(C4CC4)c3F)nnc(Cl)c2C)c(Br)c1 [I-840]
[7]; method marked [a], HPLC on reversed phase columns
  LogP: 4.57^[a]
